Data on 26 compounds can be found in patent US10112940B2, “Histone demethylase inhibitors” (Celgene Quanticel Research, Inc., priority 2014, dated 2018).

The structures appear in SMILES notation.

One assay addresses JMJD2C (Homo sapiens (Human), UniProt Q9H3R0). As to the kind of experiment: JMJD2C in vitro enzyme inhibition assay (TR-FRET). The class given is biochemical. The note with it: 0.3 nM JMJD2C, 300 nM H3K9me3-biotin peptide, 2 μM alpha-ketoglutaric acid, 30 minutes. The procedure: This assay determines the ability of a test compound to inhibit JMJD2C demethylase activity. Baculovirus expressed JMJD2C (GenBank Accession #BC143571, AA 2-372) was purchased from BPS Bioscience (Cat#50105).
The ability of test compounds to inhibit the activity of JMJD2C was determined in 384-well plate format under the following reaction conditions: 0.3 nM JMJD2C, 300 nM H3K9me3-biotin labeled peptide (Anaspec cat #64360), 2 μM alpha-ketoglutaric acid in assay buffer of 50 mM HEPES, pH7.3, 0.005% Brij35, 0.5 mM TCEP, 0.2 mg/ml BSA, 50 μM sodium L-ascorbate, and 2 μM ammonium iron(II) sulfate. Reaction product was determined quantitatively by TR-FRET after the addition of detection reagent Phycolink Streptavidin-allophycocyanin (Prozyme) and Europium-anti-di-methylated histone H3 lysine 9 (H3K9me2) antibody (PerkinElmer) in the presence of 5 mM EDTA in LANCE detection buffer (PerkinElmer) at a final concentration of 50 nM and 1 nM, respectively.
The assay reaction was initiated by the following: 2 μl of the mixture of 900 nM H3K9me3-biotin labeled peptide and 6 μM alpha-ketoglutaric acid with 2 μl of 11-point serial diluted inhibitor in 3% DMSO were added to each well of the plate, followed by the addition of 2 μl of 0.9 nM JMJD2C to initiate the reaction. The reaction mixture was incubated at room temperature for 30 minutes, and terminated by the addition of 6 μl of 5 mM EDTA in LANCE detection buffer containing 100 nM Phycolink Streptavidin-allophycocyanin and 2 nM Europium-anti-H3K9me2 antibody. Plates were read by EnVisionMultilabel Reader in TR-FRET mode (excitation at 320 nm, emission at 615 nm and 665 nm) after 1 hour incubation at room temperature. A ratio was calculated (665/615) for each well and fitted to determine inhibition constant (IC50).
The ability of the compounds disclosed herein to inhibit demethylase activity was quantified and the respective IC50 value was determined. Table 3 provides the IC50 values of various compounds disclosed herein.

Assay [1] has as its system KYSE-150 esophageal carcinoma cell line. As to the kind of experiment: In vitro cell-based assay: BrdU incorporation cell proliferation ELISA. The following applies: Homo sapiens, KYSE-150 cells, 168 hours compound incubation, read-out: Cellular IC50. Details: species or system human. Here is the method: Cell lines tested include the JMJD2C gene amplified cell line KYSE-150. This is a quantitative ELISA assay measuring DNA incorporation of BrdU during S-phase as a direct readout of cellular proliferation.
Assay Principle: This is a colorimetric immunoassay for the quantification of cell proliferation. Cells treated for 168 hours with test compounds are assayed for their ability to go through S-phase as a measure of their proliferative potential.
Assay Method: The human KYSE-150 (SMAD4 mut, TP53 mut) esophageal carcinoma cell line was seeded at 2,000 cells/well on a 96-well tissue culture treated plate. After an overnight incubation, cells were treated with compound in an 11-point dilution series with final concentrations ranging from 100 μM to 2 nM. Cells were then incubated in the presence of compound for 168 hours. After compound incubation the cells were assayed using a BrdU Cell Proliferation ELISA (Roche). The cells were first incubated with BrdU labeling reagent for 2 hours. After 2 hours, the BrdU incorporated cells were fixed and denatured, probed with an anti-BrdU-Peroxidase antibody for 1.5 hours and washed. Finally, a tetramethylbenzidine peroxidase substrate was added to each well for 15 minutes followed by a H2SO4 stop solution. The plate was read at 450 nm, and the raw optical density data was transferred into XLFit (IDBS) for IC50 calculation using the formula: fit=(D+((Vmax*(x^n))/((x^n)+(Km^n))))
Table 4 provides the cellular IC50 values of various compounds disclosed herein.

JMJD2C, sequence (Q9H3R0 2-372): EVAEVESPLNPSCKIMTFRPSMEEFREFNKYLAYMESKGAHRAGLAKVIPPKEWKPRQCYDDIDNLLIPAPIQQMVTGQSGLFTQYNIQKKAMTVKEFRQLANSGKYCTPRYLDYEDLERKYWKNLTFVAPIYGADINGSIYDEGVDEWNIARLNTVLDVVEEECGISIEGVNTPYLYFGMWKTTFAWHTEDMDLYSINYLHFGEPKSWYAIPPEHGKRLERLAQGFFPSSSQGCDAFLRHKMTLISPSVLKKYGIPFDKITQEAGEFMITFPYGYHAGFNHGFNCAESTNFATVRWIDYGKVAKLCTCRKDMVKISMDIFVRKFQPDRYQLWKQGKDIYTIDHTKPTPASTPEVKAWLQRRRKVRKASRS

`CN(c1ccc(OCC(C)(C)C)cc1)c1ccc(Oc2nc(O)c3ccncc3n2)cc1` [Example 75, 2-[4-[4-(2,2-dimethylpropoxy)-N-methylanilino]phenoxy]pyrido[3,4-d]pyrimidin-4-ol]: the half-inhibitory concentration (IC50) against JMJD2C was 1000 to 10000 nM; in assay [1], at most 100 nM.
In the same order, the values of `Cc1ccc(N(C)c2ccc(Oc3nc(O)c4ccncc4n3)cc2)nc1` [Example 43, 2-[4-[methyl-(5-methylpyridin-2-yl)amino]phenoxy]pyrido[3,4-d]pyrimidin-4-ol] are 100 to 1000 nM and 100 to 1000 nM.
`CN(c1ccc(OCC(F)(F)F)cc1)c1ccc(Oc2nc(O)c3ccncc3n2)cc1` [Example 73, 2-[4-[N-methyl-4-(2,2,2-trifluoroethoxy)anilino]phenoxy]pyrido[3,4-d]pyrimidin-4-ol]: the half-inhibitory concentration (IC50) was 100 to 1000 nM on JMJD2C and at most 100 nM in assay [1].
`CNCCC(C)c1ccc(N(C)c2ccc(Oc3nc(O)c4ccncc4n3)cc2)cc1` (stereo not shown) [Example 72, 2-[4-[N-methyl-4-[4-(methylamino)butan-2-yl]anilino]phenoxy]pyrido[3,4-d]pyrimidin-4-ol]: the 50% inhibitory concentration (IC50) was at most 100 nM against JMJD2C and above 10000 nM in assay [1].
As to `Cc1cc(N2CCN(C)CC2)cc(N(C)c2ccc(Oc3nc(O)c4ccncc4n3)cc2)c1` [Example 90, 2-[4-[N,3-dimethyl-5-(4-methylpiperazin-1-yl)anilino]phenoxy]pyrido[3,4-d]pyrimidin-4-ol], the IC50 on JMJD2C was at most 100 nM; in assay [1], above 10000 nM.
In the same order, the values of `Cc1ccc(N(C)c2ccc(Oc3nc(O)c4ccncc4n3)cc2)cc1N1CCN(C)CC1` [Example 105, 2-[4-[N,4-dimethyl-3-(4-methylpiperazin-1-yl)anilino]phenoxy]pyrido[3,4-d]pyrimidin-4-ol] are at most 100 nM and 1000 to 10000 nM.
`Oc1nc(Oc2ccc3c(ccn3-c3ccccc3)c2)nc2cnccc12` [Example 103, 2-(1-phenylindol-5-yl)oxypyrido[3,4-d]pyrimidin-4-ol]: the values for the IC50 (against JMJD2C; in assay [1]) were 1000 to 10000 nM and above 10000 nM, respectively.
Turning to `CN1CCN(c2cccc(N(C)c3ccc(Oc4nc(O)c5ccncc5n4)cc3)c2)CC1=O` [Example 45, 4-[3-[4-(4-hydroxypyrido[3,4-d]pyrimidin-2-yl)oxy-N-methylanilino]phenyl]-1-methylpiperazin-2-one], the figures for the IC50 (against JMJD2C; in assay [1]) were 100 to 1000 nM and above 10000 nM, respectively.
`COCC(C)c1ccc(N(C)c2ccc(Oc3nc(O)c4ccncc4n3)cc2)cc1` (stereo not shown) [Example 29, 2-(4-{[4-(2-methoxy-1-methyl-ethyl)-phenyl]-methyl-amino}-phenoxy)-pyrido[3,4-d]pyrimidin-4-ol]: the IC50 (on JMJD2C; in assay [1]) was 100 to 1000 nM in each case.
With `Cc1ccc(N(C)c2ccc(Oc3nc(O)c4ccncc4n3)cc2)cc1C` [Example 83, 2-[4-(N,3,4-trimethylanilino)phenoxy]pyrido[3,4-d]pyrimidin-4-ol], the IC50 lay within 1000 to 10000 nM at JMJD2C and 100 to 1000 nM in assay [1].
The like results for `CN(c1ccc(Oc2nc(O)c3ccncc3n2)cc1)c1ccc(C(C)(C)C)cc1` [Example 92, 2-[4-(4-tert-butyl-N-methylanilino)phenoxy]pyrido[3,4-d]pyrimidin-4-ol] were, in that order, 100 to 1000 nM and at most 100 nM.
As for `Cc1ccc(N(C)c2ccc(Oc3nc(O)c4ccncc4n3)cc2)cc1N1CCOCC1` [Example 55, 2-[4-(N,4-dimethyl-3-morpholin-4-ylanilino)phenoxy]pyrido[3,4-d]pyrimidin-4-ol], the IC50 against JMJD2C was 100 to 1000 nM; in assay [1], 1000 to 10000 nM.
The like results for `CCc1ccc(N(C)c2ccc(Oc3nc(O)c4ccncc4n3)cc2)cc1OCCN(C)C` [Example 65, 2-[4-[3-[2-(dimethylamino)ethoxy]-4-ethyl-N-methylanilino]phenoxy]pyrido[3,4-d]pyrimidin-4-ol] were, in that order, at most 100 nM and above 10000 nM.
In the same order, the values of `CC(C)COc1ccc(N(C)c2ccc(Oc3nc(O)c4ccncc4n3)cc2)cc1` [Example 74, 2-[4-[N-methyl-4-(2-methylpropoxy)anilino]phenoxy]pyrido[3,4-d]pyrimidin-4-ol] are 1000 to 10000 nM and at most 100 nM.
In the same order, the values of `CN(c1ccc(Oc2nc(O)c3ccncc3n2)cc1)c1ccc(C2(C(F)(F)F)CC2)cc1` [Example 107, 2-[4-[N-methyl-4-[1-(trifluoromethyl)cyclopropyl]anilino]phenoxy]pyrido[3,4-d]pyrimidin-4-ol] are 1000 to 10000 nM and at most 100 nM.
For `CN(c1ccc(CC(F)(F)F)cc1)c1ccc(Oc2nc(O)c3ccncc3n2)cc1` [Example 106, 2-[4-[N-methyl-4-(2,2,2-trifluoroethyl)anilino]phenoxy]pyrido[3,4-d]pyrimidin-4-ol], the results for the IC50 (against JMJD2C; in assay [1]) were 1000 to 10000 nM and at most 100 nM, respectively.
The like results for `CN(c1ccccc1)c1cccc(Oc2nc(O)c3ccncc3n2)c1` [Example 7, 2-[3-(Methyl-phenyl-amino)-phenoxy]-pyrido[3,4-d]pyrimidin-4-ol] were, in that order, 1000 to 10000 nM and 1000 to 10000 nM.
Consider `CN1CCN(Cc2cccc(N(C)c3ccc(Oc4nc(O)c5ccncc5n4)cc3)c2)CC1` [Example 41, 2-(4-{methyl-[3-(4-methyl-piperazin-1-ylmethyl)-phenyl]-amino}-phenoxy)-pyrido[3,4-d]pyrimidin-4-ol], for which the IC50 was at most 100 nM against JMJD2C and 1000 to 10000 nM in assay [1].
Take `Oc1nc(Oc2ccc3c(ccn3Cc3ccccc3)c2)nc2cnccc12` [Example 4, 2-(1-Benzyl-1H-indol-5-yloxy)-pyrido[3,4-d]pyrimidin-4-ol]: the IC50 (on JMJD2C; in assay [1]) was 100 to 1000 nM in each case.
`CCc1ccc(N(C)c2ccc(Oc3nc(O)c4ccncc4n3)cc2)cc1N1CCOCC1` [Example 59, 2-[4-(4-ethyl-N-methyl-3-morpholin-4-ylanilino)phenoxy]pyrido[3,4-d]pyrimidin-4-ol]: the IC50 against JMJD2C is at most 100 nM; in assay [1], above 10000 nM.
The like results for `CN(c1ccc(Oc2nc(O)c3ccncc3n2)cc1)c1ccc(C2CCOCC2)cc1` [Example 99, 2-[4-[N-methyl-4-(oxan-4-yl)anilino]phenoxy]pyrido[3,4-d]pyrimidin-4-ol] were, in that order, 100 to 1000 nM and at most 100 nM.
The like results for `CN(c1ccc(Oc2nc(O)c3ccncc3n2)cc1)c1ccc(OC(F)(F)F)cc1` [Example 110, 2-[4-[N-methyl-4-(trifluoromethoxy)anilino]phenoxy]pyrido[3,4-d]pyrimidin-4-ol] were, in that order, 1000 to 10000 nM and 100 to 1000 nM.
The like results for `CN(c1ccc(Oc2nc(O)c3ccncc3n2)cc1)c1ccccn1` [Example 1, 2-[4-(Methyl-pyridin-2-yl-amino)-phenoxy]-pyrido[3,4-d]pyrimidin-4-ol] were, in that order, 100 to 1000 nM and 1000 to 10000 nM.
For the compound `CN1CCN(c2cccc(N(C)c3ccc(Oc4nc(O)c5ccncc5n4)cc3)c2)CC1` [Example 79, 2-[4-[N-methyl-3-(4-methylpiperazin-1-yl)anilino]phenoxy]pyrido[3,4-d]pyrimidin-4-ol], the IC50 (against JMJD2C; in assay [1]) was at most 100 nM each time.
As to `CN(c1ccc(Oc2nc(O)c3ccncc3n2)cc1)c1ccc(C(F)(F)F)cc1` [Example 87, 2-[4-[N-methyl-4-(trifluoromethyl)anilino]phenoxy]pyrido[3,4-d]pyrimidin-4-ol], the concentration for half-maximal inhibition (IC50) at JMJD2C fell in the range of 1000 to 10000 nM; in assay [1], 100 to 1000 nM.
With `CCc1ccc(N(C)c2ccc(Oc3nc(O)c4ccncc4n3)cc2)nc1` [Example 97, 2-[4-[(5-ethylpyridin-2-yl)-methylamino]phenoxy]pyrido[3,4-d]pyrimidin-4-ol], the IC50 (against JMJD2C; in assay [1]) was 100 to 1000 nM throughout.
